Experimental findings from patent US12564586B2, “Kappa opiod receptor antagonists for treating pain-related sleep disorders” (ARIZONA BOARD OF REGENTS ON BEHALF OF THE UNIVERSITY OF …, priority 2020, dated 2026) are described below.

Each structure is given as a SMILES string. Entries after “also recorded” stand apart in the source; their conditions may differ.

One experiment concerns PSNL mice. The experiment can be described thus: von Frey test (paw withdrawal threshold, tactile allodynia). The experiment is classed as in vivo. Particulars: nor-BNI, naïve or injured (PSNL) animals.
A further experiment deals with sham surgery mice. The experiment in a line: EEG/EMG sleep evaluation in sham surgery mice. In kind it is in vivo, C57BL/6J mice. The protocol:
Norbinaltorphimine (nor-BNI) was dissolved in 0.9% saline to 10 mg/kg just before injection. C57BL/6J mice received intraperitoneal injection of nor-BNI or vehicle (0.9% saline) 30 minutes before EEG/EMG record at 10 days after partial sciatic nerve ligation (PSNL) surgery (FIG. 2A). CYM-53093 was synthesized as described previously by Guerrero et al. It was dissolved in DMSO, tween and saline at a ratio of 1:1:8. C57BL/6J mice were implanted with a micro-osmotic pump under the skin at 8 days after PSNL surgery and received continuous infusion of CYM-53093 (10 mg/kg/day) or vehicle. Mice had surgical recovery for 1 day after pump implantation followed by EEG/EMG record for 5 days (FIG. 3A).
EEG/EMG recording head-mount implantation was done under 2-5% isoflurane anesthesia, mice were implanted with EEG and EMG electrodes for polysomnographic recordings (Pinnacle Technology, Oregon, USA) as described previously by Ito et al. Recording was done in awake animals after acclimatization using EEG/EMG mouse sleep equipment from Pinnacle Technology. The collected EEG/EMG data were analyzed by software (Sleepsign; Kissei Comtec, Japan). The vigilance of every 5-second epoch was automatically classified into three stages, i.e., wakefulness, REM and non-REM sleep, according to the standard criteria. As a final step, defined sleep-wake stages were examined visually and corrected, if necessary. The vigilance states were assessed as follows: 1) wakefulness was defined by a high EMG amplitude, low EEG amplitude; 2) REM sleep was defined by a low EMG amplitude, low EEG amplitude, and high 0 wave (5.0-10.0 Hz) activity; and 3) non-REM sleep was defined by a low EMG amplitude, high EEG amplitude, and high 8 wave (0.65-4.5 Hz) activity.
To investigate the effect of the long acting KOR antagonist, nor-BNI, on sleep disruption in preclinical model of chronic pain, the percentage of sleep time for 24 hours between the groups administered nor-BNI or vehicle 10 days after partial sciatic nerve ligation (PSNL), and baseline before PSNL surgery were compared (FIG. 2A). The sham groups were also evaluated in the same time series as PSNL groups. […] First, in order to evaluate the sleep-wake cycle of each group, the changes in the percentage of sleep time were examined every two hours. […] Secondly, the percentage of total sleep (FIG. 2D), non-REM sleep (FIG. 2E), and REM sleep (FIG. 2F) were evaluated and time in the light phase and dark phase were evaluated separately. […] Then, duration of awake and non-REM sleep was evaluated at 6-hour intervals (early and late light phase and early and late dark phase), and compared between baseline, sham/vehicle group, PSNL/vehicle group, sham/nor-BNI group, and PSNL/nor-BNI group.

For experiment [1], the system named is PSNL mice (chronic neuropathic pain model). The experiment in a line: EEG/EMG sleep evaluation in the chronic pain model induced by partial sciatic nerve ligation (PSNL). The experiment is classed as in vivo, C57BL/6J mice. To be noted: for duration of non-REM sleep (sleep fragmentation): 6-hour intervals; for components of pain-related sleep disturbance (sleep time loss, fragmentation of sleep, daytime sleepiness): mouse model of chronic neuropathic pain, summary statement.

Where [2] appears, read: sham animals, nor-BNI treated vs vehicle treated.
[3] abbreviates: PSNL group, nor-BNI 10 mg/kg i.p.
Setting [4] is: PSNL, continuous infusion of CYM-53093 10 mg/kg/day, 10 mg/kg/day.

Take `Oc1ccc2c3c1O[C@H]1c4[nH]c5c(c4C[C@@]4(O)[C@@H](C2)N(CC2CC2)CC[C@]314)C[C@@]1(O)[C@H]2Cc3ccc(O)c4c3[C@@]1(CCN2CC1CC1)[C@H]5O4` [nor-BNI, Norbinaltorphimine]: the “evoked (mechanical/tactile) allodynia, paw withdrawal threshold” value in the experiment with PSNL mice is given as “did not alter mechanical allodynia in naïve or injured animals; also recorded: did not influence the evoked allodynia”. Moreover, in the experiment on sham surgery mice (setting [2]), the “percentage of non-REM sleep” value was “no significant difference in the percentage of total sleep and non-REM sleep”; the “percentage of total sleep” value is “no significant difference in the percentage of total sleep and non-REM sleep”. Moreover, the “sleep time (percentage of sleep time every two hours)” value in the experiment with sham surgery mice (sham groups, nor-BNI 10 mg/kg i.p.) is on record as “had no effect in the sham surgery group; also recorded: had no significant effect on sleep time”. In the experiment on sham surgery mice (sham mice, nor-BNI 10 mg/kg i.p.), the REM sleep time result is given as “significantly reduced REM sleep time in sham mice”. Moreover, in experiment [1] (setting [3]), the REM sleep time entry was “did not improve REM sleep time”; the “duration of wakefulness during the early half of the dark phase” value is listed as “improved the inability to stay awake during the dark (active) time of the day; also recorded: tended to extend this duration somewhat, it was not significant”; the non-REM sleep time entry was “increased non-REM sleep time”; the “duration of non-REM sleep (sleep fragmentation)” value is reported as “improved sleep fragmentation in PSNL during non-REM sleep”. Further, in experiment [1] (PSNL group, nor-BNI 10 mg/kg i.p. 10 days after PSNL, light phase), the “percentage of total sleep” value is given as 71.4±1.3%. The “duration of non-REM sleep (sleep fragmentation)” value in experiment [1] (PSNL group, nor-BNI 10 mg/kg i.p., listed as Nor-BNI) was “improved this fragmented sleep by PSNL”. Besides, in experiment [1] (PSNL group, nor-BNI 10 mg/kg i.p., vs baseline before PSNL surgery), the “sleep time (percentage of sleep time every two hours)” value is listed as “normalized the deficit of sleep time of the partial sciatic nerve ligation (PSNL) group to the same as baseline; also recorded: normalized the reduction of sleep time of the PSNL group almost to the same level as baseline”. The “components of pain-related sleep disturbance (sleep time loss, fragmentation of sleep, daytime sleepiness)” value in experiment [1] was “improved several important components of pain-related sleep disturbance”. Further, the “power spectrum during non-REM sleep” value in experiment [1] (nor-BNI 10 mg/kg i.p.) is recorded as “did not change the power spectrum; also recorded: unchanged in both groups”.

Turning to `CCc1cc(F)c2nc(N3CCC(NC4CCOCC4)CC3)c(-c3nc(C)no3)c(C)c2c1` [CYM53093], the “fragmentation of non-REM sleep” value in experiment [1] (PSNL, continuous infusion of CYM-53093 10 mg/kg/day) is recorded as “normalized fragmentation of non-REM sleep”. Also, in experiment [1] (PSNL, continuous infusion of CYM-53093 10 mg/kg/day by micro-osmotic pump, 5-day recording, 10 mg/kg/day), the sleep time entry was “normalized the reduction of sleep time up until day 4; also recorded: normalized the reduction of sleep time and the effect lasted at least until day 4”. In experiment [1] (PSNL, continuous infusion of CYM-53093 10 mg/kg/day, test day 4, 10 mg/kg/day), the “power density of δ wave during non-REM sleep” value is given as “no change in the power density; also recorded: did not change”. Further, in experiment [1] (setting [4]), the REM sleep entry is recorded as “did not improve REM sleep”; the “duration of wakefulness at the first half of the dark phase” value is recorded as “improved non-REM sleep, wakefulness during the first part of the dark phase; also recorded: improved short duration of wakefulness at the first half of the dark phase”; the non-REM sleep entry is reported as “improved non-REM sleep; also recorded: mainly influenced non-REM sleep”. In experiment [1], the “components of pain-related sleep disturbance (sleep time loss, fragmentation of sleep, daytime sleepiness)” value is listed as “improved several important components of pain-related sleep disturbance”.
